Laboratory results: US9096624B2 (OSI Pharmaceuticals, LLC, priority 2009, dated 2015)

How the values were obtained:
FAK [1] = target: T1, FAK (Homo sapiens, UniProt Q05397); experiment: Cell-based capture ELISA for inhibition of FAK autophosphorylation [pY397] in MiaPaCa2 cells
Experimental: Cell-Based Assays for Inhibition of FAK Autophosphorylation: MiaPaCa2 and U87MG
ELISA kit from Invitrogen (KHO0441).
Reagents Provided in Biosource FAK [pY397]
The cells were then suspended in cell assay medium.

FAK [2] = target: T1, FAK; experiment: biochemical
[3] = MIA-PaCa2 cells, + 50% mouse plasma (Table 2), read-out: Mean FAK Cell Mechanistic IC50 + 50% mP MIA-PaCa2
[4] = MIA-PaCa2 cells, + 50% mouse plasma (Table 3), read-out: Mean FAK Cell Mechanistic IC50 + 50% mP MIA-PaCa2
[5] = MIA-PaCa2 cells on fibronectin, 2 h, no plasma, read-out: Mean FAK Cell Mechanistic IC50 MIA-PaCa2
[6] = MIA-PaCa2 cells, + 50% human plasma, read-out: Mean FAK Cell Mechanistic IC50 + 50% hP MIA-PaCa2

T1 sequence (Q05397 whole entry): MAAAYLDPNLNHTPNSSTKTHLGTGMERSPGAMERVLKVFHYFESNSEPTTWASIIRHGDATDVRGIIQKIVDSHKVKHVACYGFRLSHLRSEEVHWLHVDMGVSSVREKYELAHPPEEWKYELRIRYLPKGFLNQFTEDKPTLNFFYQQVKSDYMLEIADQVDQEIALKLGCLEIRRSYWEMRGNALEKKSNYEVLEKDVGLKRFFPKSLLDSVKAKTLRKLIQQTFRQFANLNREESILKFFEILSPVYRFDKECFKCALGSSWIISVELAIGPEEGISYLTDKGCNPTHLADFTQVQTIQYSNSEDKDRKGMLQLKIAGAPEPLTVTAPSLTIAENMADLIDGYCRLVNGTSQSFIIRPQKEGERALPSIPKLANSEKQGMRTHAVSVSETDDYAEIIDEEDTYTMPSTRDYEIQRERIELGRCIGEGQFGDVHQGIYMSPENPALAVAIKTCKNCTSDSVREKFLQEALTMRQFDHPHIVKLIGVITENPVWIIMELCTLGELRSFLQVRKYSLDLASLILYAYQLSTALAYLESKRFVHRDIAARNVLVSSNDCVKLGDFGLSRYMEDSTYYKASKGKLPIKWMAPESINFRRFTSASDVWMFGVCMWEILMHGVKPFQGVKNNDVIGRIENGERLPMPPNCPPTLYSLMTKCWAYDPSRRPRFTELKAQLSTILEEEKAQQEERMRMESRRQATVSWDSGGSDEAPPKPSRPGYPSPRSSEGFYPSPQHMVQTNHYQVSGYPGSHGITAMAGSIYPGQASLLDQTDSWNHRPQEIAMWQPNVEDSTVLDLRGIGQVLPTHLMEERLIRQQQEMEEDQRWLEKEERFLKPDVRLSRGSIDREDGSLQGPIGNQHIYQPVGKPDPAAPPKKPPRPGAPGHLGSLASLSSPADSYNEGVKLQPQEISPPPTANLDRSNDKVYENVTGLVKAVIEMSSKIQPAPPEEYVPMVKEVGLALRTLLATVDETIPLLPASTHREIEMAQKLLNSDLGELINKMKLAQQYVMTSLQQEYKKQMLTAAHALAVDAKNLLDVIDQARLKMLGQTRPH

Row | IC50 (FAK [1]; [3]) | IC50 (FAK [1]; [5]) | IC50 (FAK [1]; [6]) | SMILES | IC50 (FAK [2]) | IC50 (FAK [1]; [4])
1 | 1000 to 10000 nM |  |  | CCCOP(=O)(OCCC)c1cccc(Nc2ncc(C(F)(F)F)c(NCc3cccnc3N(C)S(C)(=O)=O)n2)c1 [Example 57, dipropyl [3-({4-[({2-[methyl(methylsulfonyl)amino]pyridin-3-yl}methyl)amino]-5-(trifluoromethyl)pyrimidin-2-yl}amino)phenyl]phosphonate] | < 1000 nM | 
2 |  |  |  | CN1Cc2c(c(Nc3nc(Nc4ccc(CP(=O)(OCC(F)(F)F)OCC(F)(F)F)cc4)ncc3C(F)(F)F)ccc2[C@H]2CC[C@H](O)CC2)C1=O [Example 165, Bis(2,2,2-trifluoroethyl) (4-{[4-{[7-(trans-4-hydroxycyclohexyl)-2-methyl-3-oxo-2,3-dihydro-1H-isoindol-4-yl]amino}-5-(trifluoromethyl)pyrimidin-2-yl]amino}benzyl)phosphonate] | < 1000 nM | < 1000 nM
3 |  |  |  | CNC(=O)c1ccccc1Nc1nc(Nc2ccc(CP(=O)(OCC(F)(F)F)OCC(F)(F)F)cc2OC)ncc1C(F)(F)F [Example 114, Bis(2,2,2-trifluoroethyl)(3-methoxy-4-{[4-{[2-(methylcarbamoyl)phenyl]amino}-5-(trifluoromethyl)pyrimidin-2-yl]amino}benzyl)phosphonate] | < 1000 nM | < 1000 nM
4 |  |  |  | COCCOP(=O)(Cc1ccc(Nc2ncc(C(F)(F)F)c(Nc3ccc([C@H]4CC[C@H](O)CC4)c4c3C(=O)N(C)C4)n2)cc1)OCCOC [Example 189, Bis(2-methoxyethyl) (4-{[4-{[7-(trans-4-hydroxycyclohexyl)-2-methyl-3-oxo-2,3-dihydro-1H-isoindol-4-yl]amino}-5-(trifluoromethyl)pyrimidin-2-yl]amino}benzyl)phosphonate] | < 1000 nM | < 1000 nM
5 | 1000 to 10000 nM | < 1000 nM | < 1000 nM | CCCCOP(=O)(Cc1ccc(Nc2ncc(C(F)(F)F)c(NCc3cccnc3N(C)S(C)(=O)=O)n2)cc1)OCCCC [Example 26, Dibutyl [4-({4-[({2-[methyl(methylsulfonyl)amino]pyridin-3-yl}methyl)amino]-5-(trifluoromethyl)pyrimidin-2-yl}amino)benzyl]phosphonate] | < 1000 nM | 
6 | < 1000 nM | < 1000 nM | < 1000 nM | CCCOP(=O)(Cc1ccc(Nc2ncc(C(F)(F)F)c(NCc3cccnc3N(C)S(C)(=O)=O)n2)cc1)OCCC [Example 28, dipropyl [4-({4-[({2-[methyl(methylsulfonyl)amino]pyridin-3-yl}methyl)amino]-5-(trifluoromethyl)pyrimidin-2-yl}amino)benzyl]phosphonate] | < 1000 nM | 
7 | 1000 to 10000 nM | 1000 to 10000 nM | 1000 to 10000 nM | CN(c1ncccc1CNc1nc(Nc2cccc(CP(=O)(O)O)c2)ncc1C(F)(F)F)S(C)(=O)=O [Example 43, [3-({4-[({2-[Methyl(methylsulfonyl)amino]pyridin-3-yl}methyl)amino]-5-(trifluoromethyl)pyrimidin-2-yl}amino)benzyl]phosphonic acid] | < 1000 nM | 
8 |  |  |  | CCOP(=O)(Cc1ccc(Nc2ncc(C(F)(F)F)c(Nc3ccc(-c4cnn([C@H]5CC[C@H](O)CC5)c4)c4c3C(=O)N(C)C4)n2)cc1)OCC [Example 164, Diethyl (4-{[4-({7-[1-(trans-4-hydroxycyclohexyl)-1H-pyrazol-4-yl]-2-methyl-3-oxo-2,3-dihydro-1H-isoindol-4-yl}amino)-5-(trifluoromethyl)pyrimidin-2-yl]amino}benzyl) phosphonate] | < 1000 nM | < 1000 nM
9 |  |  |  | CCOc1cc(CP(=O)(OCC)OCC)ccc1Nc1ncc(C(F)(F)F)c(Nc2ccc([C@H]3CC[C@@H](C(=O)OCC)CC3)c3c2C(=O)N(C)C3)n1 [Example 244, Ethyl cis-4-(7-{[2-({4-[(diethoxyphosphoryl)methyl]-2-ethoxyphenyl}amino)-5-(trifluoromethyl)pyrimidin-4-yl]amino}-2-methyl-1-oxo-2,3-dihydro-1H-isoindol-4-yl)cyclohexanecarboxylate] | < 1000 nM | 1000 to 10000 nM
10 |  |  |  | CCOP(=O)(Cc1ccc(Nc2ncc(C(F)(F)F)c(Nc3ccc([C@H]4CC[C@H](N5CCN(C(C)=O)CC5)CC4)c4c3C(=O)N(C)C4)n2)c(OC)c1)OCC [Example 238, diethyl (4-{[4-({7-[trans-4-(4-acetylpiperazin-1-yl)cyclohexyl]-2-methyl-3-oxo-2,3-dihydro-1H-isoindol-4-yl}amino)-5-(trifluoromethyl)pyrimidin-2-yl]amino}-3-methoxybenzyl)phosphonate] | < 1000 nM | < 1000 nM
11 |  |  |  | CCOP(=O)(OCC)C(F)c1ccc(Nc2ncc(C(F)(F)F)c(Nc3ccccc3C(=O)NC)n2)cc1 (stereo not drawn) [Example 172, Diethyl [fluoro(4-{[4-{[2-(methylcarbamoyl)phenyl]amino}-5-(trifluoromethyl)pyrimidin-2-yl]amino}phenyl)methyl]phosphonate] | < 1000 nM | < 1000 nM
12 |  |  |  | CCOP(=O)(Cc1ccc(Nc2ncc(C(F)(F)F)c(Nc3ccc([C@H]4CC[C@H](OCC)CC4)c4c3C(=O)N(C)C4)n2)cc1)OCC [Example 169, Diethyl (4-{[4-{[7-(trans-4-ethoxycyclohexyl)-2-methyl-3-oxo-2,3-dihydro-1H-isoindol-4-yl]amino}-5-(trifluoromethyl)pyrimidin-2-yl]amino}benzyl)phosphonate] | < 1000 nM | < 1000 nM
13 | > 10000 nM |  |  | CCCCOP(=O)(Cc1cccc(Nc2ncc(C(F)(F)F)c(NCc3cccnc3N(C)S(C)(=O)=O)n2)c1)OCCCC [Example 54, dibutyl [3-({4-[({2-[methyl(methylsulfonyl)amino]pyridin-3-yl}methyl)amino]-5-(trifluoromethyl)pyrimidin-2-yl}amino)benzyl]phosphonate] | < 1000 nM | 

Row | SMILES | IC50 (FAK [1]; [3]) | IC50 (FAK [1]; [5]) | IC50 (FAK [1]; [6]) | IC50 (FAK [2]) | IC50 (FAK [1]; [4])
14 | CCOP(=O)(Cc1ccc(Nc2ncc(C(F)(F)F)c(Nc3ccc(N4CC[C@H](O)C4)c4c3C(=O)N(C)C4)n2)c(OC)c1)OCC [Example 84, Diethyl (4-{[4-({7-[(3S)-3-hydroxypyrrolidin-1-yl]-2-methyl-3-oxo-2,3-dihydro-1H-isoindol-4-yl}amino)-5-(trifluoromethyl)pyrimidin-2-yl]amino}-3-methoxybenzyl)phosphonate] | < 1000 nM |  |  | < 1000 nM | 
15 | CCOP(=O)(Cc1ccc(Nc2ncc(C(F)(F)F)c(Nc3ccc(Br)c4c3C(=O)N(C)C4)n2)c(OC)c1)OCC [Example 62, Diethyl [4-({4-[(7-bromo-2-methyl-3-oxo-2,3-dihydro-1H-isoindol-4-yl)amino]-5-(trifluoromethyl)pyrimidin-2-yl}amino)-3-methoxybenzyl]phosphonate] |  | < 1000 nM | 1000 to 10000 nM | < 1000 nM | 
16 | CCOP(=O)(Cc1ccc(Nc2ncc(C(F)(F)F)c(Nc3ccc([C@H]4CC[C@H](O)CC4)c4c3C(=O)N(C)C4)n2)cc1)OCC (stereo in doubt) [Example 92, Diethyl (4-{[4-{[7-(trans-4-hydroxycyclohexyl)-2-methyl-3-oxo-2,3-dihydro-1H-isoindol-4-yl]amino}-5-(trifluoromethyl)pyrimidin-2-yl]amino}benzyl)phosphonate] | < 1000 nM |  |  | < 1000 nM | 
17 | CCOP(C)(=O)Cc1ccc(Nc2ncc(C(F)(F)F)c(Nc3ccc(Br)c4c3C(=O)N(C)C4)n2)cc1 (stereo not drawn) [Example 61, Ethyl [4-({4-[(7-bromo-2-methyl-3-oxo-2,3-dihydro-1H-isoindol-4-yl)amino]-5-(trifluoromethyl)pyrimidin-2-yl}amino)benzyl]methylphosphinate] |  | < 1000 nM | 1000 to 10000 nM | < 1000 nM | 
